What was measured:
[1] = molecular target: T1, TBK1 (Homo sapiens, UniProt Q9UHD2); experiment: TBK1 inhibition, ADP-Glo Kinase Assay; assay type: biochemical; details: luminometer
T1 construct: purchased Promega V3991
T1 sequence (Q9UHD2 1-729): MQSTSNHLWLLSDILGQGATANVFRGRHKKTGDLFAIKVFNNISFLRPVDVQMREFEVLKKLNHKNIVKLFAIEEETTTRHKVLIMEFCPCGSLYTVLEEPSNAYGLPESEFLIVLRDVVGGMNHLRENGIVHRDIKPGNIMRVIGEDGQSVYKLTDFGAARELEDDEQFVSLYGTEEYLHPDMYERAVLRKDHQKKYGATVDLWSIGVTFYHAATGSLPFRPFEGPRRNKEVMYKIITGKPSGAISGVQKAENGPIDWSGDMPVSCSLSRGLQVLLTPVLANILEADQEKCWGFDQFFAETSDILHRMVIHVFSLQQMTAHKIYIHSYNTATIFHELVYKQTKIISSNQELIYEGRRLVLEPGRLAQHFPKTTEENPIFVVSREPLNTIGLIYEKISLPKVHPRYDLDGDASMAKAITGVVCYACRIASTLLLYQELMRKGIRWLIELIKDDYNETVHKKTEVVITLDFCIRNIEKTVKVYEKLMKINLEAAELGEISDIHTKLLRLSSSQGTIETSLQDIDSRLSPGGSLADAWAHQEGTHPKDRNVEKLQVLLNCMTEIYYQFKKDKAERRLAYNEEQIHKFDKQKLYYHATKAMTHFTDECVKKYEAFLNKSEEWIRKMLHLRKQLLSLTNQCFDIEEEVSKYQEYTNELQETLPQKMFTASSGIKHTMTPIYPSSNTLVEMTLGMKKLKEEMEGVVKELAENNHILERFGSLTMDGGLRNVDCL
Summary of the method: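 Each recombinant kinase enzyme system was run per the manufacturer's protocol in 40 mM Tris pH 7.5, 20 mM MgCl2 and 0.1 mg/mL BSA. Kinase activity was detected as ADP formation by ADP-Glo luminescence.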

[2] = molecular target: T2, IKKε (Homo sapiens, UniProt Q14164); experiment: IKKε inhibition, ADP-Glo Kinase Assay; assay type: biochemical; details: luminometer
T2 construct: purchased Invitrogen PR8031B
T2 sequence (Q14164 1-716): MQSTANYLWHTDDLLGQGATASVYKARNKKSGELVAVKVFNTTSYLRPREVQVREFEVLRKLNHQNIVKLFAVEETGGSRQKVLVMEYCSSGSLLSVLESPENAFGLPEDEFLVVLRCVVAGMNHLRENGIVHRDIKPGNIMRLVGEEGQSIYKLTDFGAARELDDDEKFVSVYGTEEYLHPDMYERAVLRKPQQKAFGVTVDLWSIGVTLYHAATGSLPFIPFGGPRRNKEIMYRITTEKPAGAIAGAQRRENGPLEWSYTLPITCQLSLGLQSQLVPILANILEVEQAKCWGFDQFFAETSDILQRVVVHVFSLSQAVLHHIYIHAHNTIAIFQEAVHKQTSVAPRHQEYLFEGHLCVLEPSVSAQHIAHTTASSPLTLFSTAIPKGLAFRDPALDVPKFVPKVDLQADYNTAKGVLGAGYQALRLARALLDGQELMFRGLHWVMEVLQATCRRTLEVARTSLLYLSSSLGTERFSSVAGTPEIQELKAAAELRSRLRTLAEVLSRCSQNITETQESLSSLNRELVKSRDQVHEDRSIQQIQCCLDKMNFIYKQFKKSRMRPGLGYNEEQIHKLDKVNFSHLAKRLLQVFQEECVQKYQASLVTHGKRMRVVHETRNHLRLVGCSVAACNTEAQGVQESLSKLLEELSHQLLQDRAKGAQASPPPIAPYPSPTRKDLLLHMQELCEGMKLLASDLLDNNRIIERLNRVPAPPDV
Procedure: Inhibition activities on TNIK, IKKε and TBK1 were evaluated using the compounds of Examples 1 to 254.
The inhibition activities on TNIK, IKKε and TBK1 were measured by a luminometer, TNIK/IKKε/TBK1 Kinase Enzyme System (Promega, Ca# V4158; Invitrogen, PR8031B, Promega, Ca# V3991) and ADP-Glo Kinase Assay using ADP-Glo™ Kinase Analysis Kit (Promega, Ca# V9101) and a kinase reaction buffer [40 mM Tris(pH 7.5), 20 mM MgCl2, 0.1 mg/mL BSA] in accordance with the manufacturer's protocol.

SMILES | IC50 [1] [µM] | IC50 [2] [µM]
Cc1cc(C(=O)Nc2n[nH]c3ccc(C(=O)NCc4cccs4)cc23)ccc1N1CCOCC1 [Example 78, 3-(3-Methyl-4-morpholinobenzamido)-N-(thiophen-2-ylmethyl)-1H-indazole-5-carboxamide] | 0.037 | 0.2
Cc1cc(C(=O)Nc2n[nH]c3ccc(C(=O)NCc4cccs4)cc23)ccc1N1CCN(C)CC1 [Example 79, 3-(3-Methyl-4-(4-methylpiperazin-1-yl)benzamido)-N-(thiophen-2-ylmethyl)-1H-indazole-5-carboxamide] | 0.015 | 0.22
CC(NC(=O)c1ccc2[nH]nc(NC(=O)c3ccc(N4CCN(C)CC4)cc3)c2c1)c1nccs1 (stereo not shown) [Example 82, 3-(4-(4-Methylpiperazin-1-yl)benzamido)-N-(1-(thiazol-2-yl)ethyl)-1H-indazole-5-carboxamide] | 0.014 | 0.074
CCC(NC(=O)c1ccc2[nH]nc(NC(=O)c3ccc(N4CCN(C)CC4)cc3)c2c1)c1nccs1 (stereo not shown) [Example 84, 3-(4-(4-Methylpiperazin-1-yl)benzamido)-N-(1-(thiazol-2-yl)propyl)-1H-indazole-5-carboxamide] | 0.016 | 0.069
CN1CCN(c2ccc(C(=O)Nc3n[nH]c4ccc(C(=O)NCc5ccccn5)cc34)cc2)CC1 [Example 85, 3-(4-(4-Methylpiperazin-1-yl)benzamido)-N-(pyridin-2-ylmethyl)-1H-indazole-5-carboxamide bis(2,2,2-trifluoroacetate)] | 0.16 | 1.63
O=C(NCc1ccccn1)c1ccc2[nH]nc(NC(=O)c3ccc(N4CCOCC4)cc3)c2c1 [Example 86, 3-(4-Morpholinobenzamido)-N-(pyridin-2-ylmethyl)-1H-indazole-5-carboxamide] | 0.089 | 0.45
CN1CCN(c2ccc(C(=O)Nc3n[nH]c4ccc(C(=O)NCC5CCCCC5)cc34)cc2)CC1 [Example 87, N-(Cyclohexylmethyl)-3-(4-(4-methylpiperazin-1-yl)benzamido)-1H-indazole-5-carboxamide] | 0.018 | 0.072
O=C(NCC1CCCCC1)c1ccc2[nH]nc(NC(=O)c3ccc(N4CCOCC4)cc3)c2c1 [Example 88, N-(Cyclohexylmethyl)-3-(4-morpholinobenzamido)-1H-indazole-5-carboxamide] | 0.02 | 0.11
CN1CCN(c2ccc(C(=O)Nc3n[nH]c4ccc(C(=O)NCC5CCCC5)cc34)cc2)CC1 [Example 90, N-(Cyclopentylmethyl)-3-(4-(4-methylpiperazin-1-yl)benzamido)-1H-indazole-5-carboxamide 2,2,2-trifluoroacetate] | 0.013 | 0.21
CC(CCO)NC(=O)c1ccc2[nH]nc(NC(=O)c3ccc(N4CCN(C)CC4)cc3)c2c1 (stereo not shown) [Example 93, N-(4-Hydroxybutan-2-yl)-3-(4-(4-methylpiperazin-1-yl)benzamido)-1H-indazole-5-carboxamide] | 0.19 | 1.04
CN1CCN(c2ccc(C(=O)Nc3n[nH]c4ccc(C(=O)NCc5c[nH]nn5)cc34)cc2)CC1 [Example 94, N-((1H-1,2,3-Triazol-4-yl)methyl)-3-(4-(4-methylpiperazin-1-yl)benzamido)-1H-indazole-5-carboxamide] | 0.24 | 1.59

Compounds with a lower IC50 [1], results first:

IC50 [1] [µM] | IC50 [2] [µM] | SMILES
0.0046 | 0.016 | C[C@H]1CN(c2ccc(C(=O)Nc3n[nH]c4ccc(C(=O)NC5(c6ccccc6)CC5)cc34)cc2)CCN1 [Example 76, (S)-3-(4-(3-Methylpiperazin-1-yl)benzamido)-N-(1-phenylcyclopropyl)-1H-indazole-5-carboxamide]
0.0048 | 0.018 | C[C@@H]1CN(c2ccc(C(=O)Nc3n[nH]c4ccc(C(=O)NC5(c6ccccc6)CC5)cc34)cc2)CCN1 [Example 77, (R)-3-(4-(3-Methylpiperazin-1-yl)benzamido)-N-(1-phenylcyclopropyl)-1H-indazole-5-carboxamide]
0.0025 | 0.0074 | CC(NC(=O)c1ccc2[nH]nc(NC(=O)c3ccc(N4CCN(C)CC4)cc3)c2c1)c1ccsc1 (stereo not shown) [Example 80, 3-(4-(4-Methylpiperazin-1-yl)benzamido)-N-(1-(thiophen-3-yl)ethyl)-1H-indazole-5-carboxamide]
0.0039 | 0.021 | CC(NC(=O)c1ccc2[nH]nc(NC(=O)c3ccc(N4CCN(C)CC4)cc3)c2c1)c1ccco1 (stereo not shown) [Example 81, N-(1-(Furan-2-yl)ethyl)-3-(4-(4-methylpiperazin-1-yl)benzamido)-1H-indazole-5-carboxamide]
0.011 | 0.047 | CC(NC(=O)c1ccc2[nH]nc(NC(=O)c3ccc(N4CCN(C)CC4)cc3)c2c1)c1cncs1 (stereo not shown) [Example 83, 3-(4-(4-Methylpiperazin-1-yl)benzamido)-N-(1-(thiazol-5-yl)ethyl)-1H-indazole-5-carboxamide]
0.0056 | 0.079 | CC1CN(c2ccc(C(=O)Nc3n[nH]c4ccc(C(=O)NCc5cccs5)cc34)cc2)CC(C)N1 (stereo not shown) [Example 89, 3-(4-(3,5-Dimethylpiperazin-1-yl)benzamido)-N-(thiophen-2-ylmethyl)-1H-indazole-5-carboxamide 2,2,2-trifluoroacetate]
0.0053 | 0.093 | O=C(NCC1CCCC1)c1ccc2[nH]nc(NC(=O)c3ccc(N4CCOCC4)cc3)c2c1 [Example 91, N-(Cyclopentylmethyl)-3-(4-morpholinobenzamido)-1H-indazole-5-carboxamide 2,2,2-trifluoroacetate]
0.007 | 0.065 | CC1CN(c2ccc(C(=O)Nc3n[nH]c4ccc(C(=O)NCc5cccs5)cc34)cc2)CC(C)O1 (stereo not shown) [Example 92, 3-(4-(2,6-Dimethylmorpholino)benzamido)-N-(thiophen-2-ylmethyl)-1H-indazole-5-carboxamide 2,2,2-trifluoroacetate]
0.0028 | 0.021 | CCC(NC(=O)c1ccc2[nH]nc(NC(=O)c3ccc(N4CC(C)NC(C)C4)cc3)c2c1)c1cccs1 (stereo not shown) [Example 95, 3-(4-(3,5-dimethylpiperazin-1-yl)benzamido)-N-(1-(thiophen-2-yl)propyl)-1H-indazole-5-carboxamide 2,2,2-trifluoroacetate]
0.0051 | 0.047 | CCC(NC(=O)c1ccc2[nH]nc(NC(=O)c3ccc(N4CC(C)OC(C)C4)cc3)c2c1)c1cccs1 (stereo not shown) [Example 96, 3-(4-(2,6-Dimethylmorpholino)benzamido)-N-(1-(thiophen-2-yl)propyl)-1H-indazole-5-carboxamide 2,2,2-trifluoroacetate]
0.0028 | 0.016 | CCC(NC(=O)c1ccc2[nH]nc(NC(=O)c3ccc(N4CCN[C@@H](C)C4)cc3)c2c1)c1cccs1 (stereo partly drawn) [Example 97, 3-(4-((S)-3-Methylpiperazin-1-yl)benzamido)-N-(1-(thiophen-2-yl)propyl)-1H-indazole-5-carboxamide 2,2,2-trifluoroacetate]
0.003 | 0.023 | CCC(NC(=O)c1ccc2[nH]nc(NC(=O)c3ccc(N4CCN[C@H](C)C4)cc3)c2c1)c1cccs1 (stereo partly drawn) [Example 98, 3-(4-((R)-3-Methylpiperazin-1-yl)benzamido)-N-(1-(thiophen-2-yl)propyl)-1H-indazole-5-carboxamide 2,2,2-trifluoroacetate]

From patent US10294207B2, “Pyrazole derivatives as TNIK, IKKϵ and TBK1 inhibitor and pharmaceutical composition comprising same” (GREEN CROSS CORPORATION, priority 2015, dated 2019)
